In patent US20260069694A1, “IDENTIFICATION OF HIGHLY IMMUNOSUPRESIVE TREG POPULATION IN TUMOR MICROENVIRONMENTS” (THE TRUSTEES OF COLUMBIA UNIVERSITY IN THE CITY OF NEW YORK, priority 2023, published 2026):
Entries after “also recorded” stand apart in the source; their conditions may differ.

Key:
Type in all cases: in vivo, mouse
[1] = test system: orthotopic KPC-derived PDAC tumors; experiment: Treatment study in orthotopic syngeneic KPC-derived PDAC mice: tumor weight; conditions: 3 times a week for 2 weeks
Method: Syngeneic PDAC mice were generated by orthotopic pancreatic injections of 5.0×10^5 KPC-derived PDAC cells into 8- to 10-week-old C57B6129SF1/J hybrid mice (Jackson™), which are the offspring of a cross between C57BL/6J females and 129S1/SvImJ males. In some experiments, the tumor growth was measured by luminescence imaging.
(§1) The treatment studies in orthotopic syngeneic PDAC mice were performed as follows. Eight days after orthotopic implantation of 5.0×10^5 KPC-derived PDAC cells, the mice were randomized into respective treatment cohorts, such as intravenous (IV) phosphate buffered saline (PBS) alone, IV iRGD alone (300 μg/25 g), IV PBS+IP antimouse PD-L1 mAb (200 μg/mouse; clone MIH6; BioLegend™), IV iRGD+IP anti-mouse PD-L1 mAb, IV PBS+IV Gem (4 mg/kg; MilliporeSigma™), and IV iRGD+IV GEM+IP anti-mouse PD-L1 mAb. The treatment was given 3 times a week for 2 weeks starting 8 days after tumor cell implantation. The tumors and major organs were harvested at the end of the studies on day 22, weighed, and processed for flow cytometry, IF, and IHC. The treatment studies were terminated according to the guidelines by the IACUC at Columbia University. Treatment studies in transgenic KPC mice were performed as previously described.
C57B6129SF1/J hybrid mice bearing orthotopic KPC-derived PDAC tumors were treated with PBS or iRGD 3 times a week for 2 weeks. […]

[2] = test system: huPDAC tumors; experiment: Humanized PDAC (huPDAC) mice treated with iRGD monotherapy
Excerpt: In summary, this report conveys an important concept of tumor-specific Treg targeting, which can be achieved using an affinity probe that targets the αvβ5 integrin expressed on tumor-resident Tregs. […] The immune system of huPDAC mice is replaced by functional human immune cells, which react to antigens in a human-leukocyte antigen (HLA)-restricted manner, allowing us to study the response of human immunity against human PDAC in mice. […] Our finding that patient-derived PDAC tissue also harbors αvβ5 integrin- and NRP-1-positive Tregs further supports the argument that iRGD-mediated Treg targeting can be achieved in human PDAC patients. Clinical trials are now being organized to explore the therapeutic benefit of adding an ICB to iRGD-based chemotherapy in PDAC patients.

[3] = test system: Tregs and CD8+ T cells in PDAC tissue and spleen; experiment: Orthotopic KPC-derived PDAC mice: flow cytometry and IF of T cells in tumor and spleen
Method: as §1
Tumors from orthotopic PDAC mice were minced into 2-4 mm pieces and added with an enzyme mix from a tumor dissociation kit (Miltenyi Biotec™) in Roswell Park Memorial Institute medium 1640 (Cytiva™). The tissues were dissociated using a gentle MACS Dissociator (Miltenyi Biotec™) followed by a 40-minute incubation at 37° C. The samples were then centrifuged for 10 minutes at 3000×g in the presence of debris removal solution (Miltenyi Biotec™) and 10 minutes at 1000×g in cooled PBS. The supernatant was aspirated to remove the debris. Splenocytes were prepared by gently grinding the spleen and filtrating the resulting cell suspension through a 40 μm cell strainer. Red cells were lysed with an ACK lysing buffer (Thermo Fisher Scientific™
Immune cells isolated from the tumor or spleen, or cells cultured in vitro were tested for surface marker by staining with the following reagents for 20 minutes at 4° C.: Brilliant Violet 650™-conjugated anti-mouse CD3 Ab (clone 17A2; BioLegend), PerCP/Cyanine5.5-conjugated anti-mouse CD4 Ab (clone GK1.5; BioLegend™), PE/Cyanine7-conjugated antimouse CD8a Ab (clone 53-6.7; BioLegend™), PE-conjugated anti-mouse CD25 Ab (clone 7D4; Miltenyi Biotec™), PE/Cyanine7-conjugated anti-mouse CD25 Ab (clone PC61; BioLegend™), Brilliant Violet 421™ or 711™-conjugated anti-mouse CD304/NRP-1 Ab (clone 3E12; BioLegend™), Alexa Fluor® 647-conjugated anti-mouse integrin αvβ5 Ab (clone ALULA; BD Biosciences™), PE-conjugated anti-mouse CD198 (CCR8) Ab (clone SA214G2; BioLegend™), Zombie NIR™ (BioLegend™), or Aqua™ Fixable Viability Kit (BioLegend™). Intracellular staining of immune cells was performed using the following Abs and a Foxp3 staining buffer kit (eBioscience) according to the manufacturer's instructions: Brilliant Violet 421™-conjugated anti-Foxp3 Ab (FJK-16s; eBioscience™) Pacific Blue™-conjugated anti-mouse Foxp3 Ab (clone MF-14; BioLegend™), cleaved caspase-3 (Asp175) (5A1E) rabbit mAb (Cell Signaling™), and Alexa Flour™ 488-conjugated donkey anti-rabbit secondary Ab (Thermo Fisher Scientific™)
The Effect of iRGD Therapy on the Proportion of CD8+ T cells, Tregs, and Non-Treg CD4+ T Cells in the PDAC Tissue and the Spleen was tested. C57B6129SF1/J hybrid mice bearing orthotopic KPCderived PDAC tumors were treated with PBS or iRGD 3 times a week for 2 weeks. The tumors and spleen were collected 3, 7 and 14 days after the treatment was started. The proportion of CD8+ T cells, CD4+CD25+ T cells (Tregs), and CD4+CD25neg T cells (non-Tregs) in the tumors (FIG. 6A) and the spleen (FIG. 6B) were analyzed by flow cytometry (n=3 per arm).
In addition, C57B6129SF1/J hybrid mice bearing KPC-derived orthotopic PDAC tumors were intravenously treated with PBS or iRGD 3 times a week for 2 weeks. Tumors and spleen were collected at 3, 7 and 14 days after the treatment was started. […]

## CRGDKGPDC [iRGD]
[1]
  tumor growth (tumor weight at end of study): did not inhibit tumor growth; also recorded: did not affect tumor growth
[2]
  CD8/Treg ratio in the huPDAC tumors: increased the CD8/Treg ratio in the tumors
[3]; CD4+CD25+ Tregs among CD4+ T cells, tumor, in 7 days, vs PBS
  proportion of Tregs in the PDAC tissue: significantly reduced the proportion of Tregs
[3]; spleen of the PDAC mice
  CD8/Treg ratio in the spleen: did not affect
  proportion of CD8+ T cells in the spleen: did not affect
  proportion of Tregs in the spleen: did not affect
[3]; tumor, flow cytometry, vs PBS
  proportion of CD8+ T cells in the PDAC tissue: increased the proportion of CD8+ T cells
[3]; tumor, in 7 days, vs PBS
  CD8/Treg ratio in the PDAC tissue: significantly increased the CD8/Treg ratio
